Patent US10934274B2, “Quinoline derivatives as TAM RTK inhibitors” (Qurient Co., Ltd., priority 2015, dated 2021)

Tests used:
TYRO3 = molecular target: T1, TYRO3 (Homo sapiens, UniProt Q06418); assay: LanthaScreen Eu kinase binding assay, TYRO3; settings: Tracer 236
T1 construct: purchased Life Technologies
T1 sequence (Q06418 41-890): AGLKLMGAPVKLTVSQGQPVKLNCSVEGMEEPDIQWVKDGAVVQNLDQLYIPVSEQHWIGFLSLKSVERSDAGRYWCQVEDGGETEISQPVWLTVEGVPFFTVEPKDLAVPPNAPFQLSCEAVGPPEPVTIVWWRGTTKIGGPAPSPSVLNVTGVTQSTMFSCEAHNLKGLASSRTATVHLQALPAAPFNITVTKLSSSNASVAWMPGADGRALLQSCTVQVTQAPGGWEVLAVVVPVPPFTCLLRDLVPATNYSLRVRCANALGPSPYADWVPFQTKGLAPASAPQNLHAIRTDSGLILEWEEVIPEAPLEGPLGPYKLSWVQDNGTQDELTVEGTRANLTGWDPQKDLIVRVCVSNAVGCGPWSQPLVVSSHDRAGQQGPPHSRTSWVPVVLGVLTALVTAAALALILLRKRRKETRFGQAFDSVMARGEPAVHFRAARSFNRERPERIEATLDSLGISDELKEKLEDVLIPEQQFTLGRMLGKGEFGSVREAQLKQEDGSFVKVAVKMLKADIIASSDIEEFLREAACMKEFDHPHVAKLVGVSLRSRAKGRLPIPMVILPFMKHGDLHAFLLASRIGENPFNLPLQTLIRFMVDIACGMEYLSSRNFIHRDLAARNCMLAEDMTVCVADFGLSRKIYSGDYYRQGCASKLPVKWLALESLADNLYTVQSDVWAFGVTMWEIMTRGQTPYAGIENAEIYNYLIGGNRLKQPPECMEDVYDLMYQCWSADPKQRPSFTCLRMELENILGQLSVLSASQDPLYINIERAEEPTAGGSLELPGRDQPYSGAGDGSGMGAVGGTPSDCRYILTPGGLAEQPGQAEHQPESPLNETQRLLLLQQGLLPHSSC

[1] = tested on: Axl phosphorylation in transiently transfected HEK293T cells; assay: Cellular Axl phosphorylation assay; assay type: cell-based; settings: Homo sapiens, HEK-293T; HEK293T cells transfected with Axl, 1 hour compound treatment, Phospho-Axl vs Total-Axl
Source text: Cell AXL Inhibition Assay Principle
The assay is based on the measurement of the relative amounts of Total-Axl and Phosphorylated-Axl in whole cell lysates of transiently transfected HEK293T cells. This assay is based on application of the Mesoscale western blot and subsequent electro-chemiluminescence detection. Overexpression of Axl-RTK (Receptor tyrosine kinase) by transfection leads to an increase in Axl-trans-autophosphorylation events. Upon compound treatment, the correlation of the measured values of Phosphorylated-Axl and Total Axl indicate the potential of the tested compound to inhibit Axl-phosphorylation at the given compound concentration.
Cell AXL Inhibition Assay Protocol
HEK293T cells (2.5×10^4/well) were plated in a 96 well plate and cells were transfected with pcDNA_DEST_40 Axl or pcDNA_DEST_40 by Superfact reagent (Qiagen. Co. Ltd.). After overnight, the transfection reagent of each well was removed from cells and replaced by fresh prewarmed medium. On the following day, cells were treated with the respective test compound which was diluted by the same method, as in the Axl binding assay using DMSO, for 1 hour
After incubation with the test compounds, cells in the well of the plate were lysed using Tris lysis buffer. The lysate was transferred to two plates (total-Axl and phosphor-Axl) Mesoscale high bind plates and incubated for two hours at room temperature. Afterwards the lysates were removed from the plates and the plates were blocked using Blocking buffer. Subsequently Total-Axl antibody (H-124, Santa Cruz) was transferred to one Mesoscale high bind plate, and Phospho-Axl antibody (AF2228, R&D) to the other plate. After 1 h incubation, Sulpho-Tag antibody (goat anti-rabbit, Mesoscale) was added and again incubated for 1 hour. For the measurement, 2×MSD read buffer was added to each well and the plates were analyzed with a Mesoscale Sector Imager 2400. IC50 (half the maximal inhibitory concentration) was determined relative to between the vehicle (DMSO) control group and minimum control group as transfection of the control vector (pcDNA_DEST_40).
The results after this assay are shown in table 3 for selected compounds.

Kd (TYRO3) [nM]	Structure (SMILES)	IC50 [1] [nM]
< 100	CCOc1cn(-c2ccc(N)nc2)nc1C(=O)Nc1ccc(Oc2ccnc3cc(OC)c(OC)cc23)cn1 [Compound 6]	< 100
≥ 1000	CCOc1cn(-c2ccnc(O)c2)nc1C(=O)Nc1ccc(Oc2ccnc3cc(OC)c(OC)cc23)cn1 [Compound 7]	≥ 1000
100 to 1000	CCOc1cn(-c2cn[nH]c2)nc1C(=O)Nc1ccc(Oc2ccnc3cc(OC)c(OC)cc23)cn1 [Compound 8]	< 100
< 100	CCOc1cn(-c2cnc(N)nc2)nc1C(=O)Nc1ccc(Oc2ccnc3cc(OC)c(OC)cc23)cn1 [Compound 10]	< 100
100 to 1000	CCOc1cn(-c2cncn2C)nc1C(=O)Nc1ccc(Oc2ccnc3cc(OC)c(OC)cc23)cn1 [Compound 11]	< 100
< 100	CCOc1cn(-c2nccs2)nc1C(=O)Nc1ccc(Oc2ccnc3cc(OC)c(OC)cc23)cn1 [Compound 12]	< 100
< 100	CCOc1cn(-c2cscn2)nc1C(=O)Nc1ccc(Oc2ccnc3cc(OC)c(OC)cc23)cn1 [Compound 13]	< 100
< 100	CCOc1cn(-c2cncs2)nc1C(=O)Nc1ccc(Oc2ccnc3cc(OC)c(OC)cc23)cn1 [Compound 14]	< 100
100 to 1000	CCOc1cnn(-c2cncs2)c1C(=O)Nc1ccc(Oc2ccnc3cc(OC)c(OC)cc23)cn1 [Compound 16]	100 to 1000
≥ 1000	CCOc1cn(-c2cnc(CO)nc2)nc1C(=O)Nc1ccc(Oc2ccnc3cc(OC)c(OC)cc23)cn1 [Compound 96]	< 100
≥ 1000	CCOc1cn(-c2ccc(F)cc2C)nc1C(=O)Nc1ccc(Oc2ccnc3cc(OC)c(OC)cc23)nn1 [Compound 97]	< 100
100 to 1000	CCOc1cn(-c2ccc(C(F)(F)F)cc2C)nc1C(=O)Nc1ccc(Oc2ccnc3cc(OC)c(OC)cc23)cn1 [Compound 99]	< 100
100 to 1000	CCOc1cn(-c2ccc(C)cc2F)nc1C(=O)Nc1ccc(Oc2ccnc3cc(OC)c(OC)cc23)cn1 [Compound 100]	< 100
100 to 1000	CCOc1cn(-c2ccc(Cl)cc2C(F)(F)F)nc1C(=O)Nc1ccc(Oc2ccnc3cc(OC)c(OC)cc23)cn1 [Compound 101]	< 100
100 to 1000	CCOc1cnn(-c2ccc(C(F)(F)F)cc2C)c1C(=O)Nc1ccc(Oc2ccnc3cc(OC)c(OC)cc23)cn1 [Compound 102]	< 100
< 100	CCOc1cn(-c2ccc(F)cc2C(F)(F)F)nc1C(=O)Nc1ccc(Oc2ccnc3cc(OC)c(OC)cc23)cn1 [Compound 104]	< 100
100 to 1000	CCOc1cn(-c2ccc(C(F)(F)F)cc2C(F)(F)F)nc1C(=O)Nc1ccc(Oc2ccnc3cc(OC)c(OC)cc23)cn1 [Compound 105]	< 100
100 to 1000	CCOc1cn(-c2ccc(Cl)cc2F)nc1C(=O)Nc1ccc(Oc2ccnc3cc(OC)c(OC)cc23)cn1 [Compound 106]	< 100
< 100	CCOc1cn(-c2ccc(F)cc2F)nc1C(=O)Nc1ccc(Oc2ccnc3cc(OC)c(OC)cc23)cn1 [Compound 107]	< 100
< 100	CCOc1cn(-c2ccc(Cl)cc2Cl)nc1C(=O)Nc1ccc(Oc2ccnc3cc(OC)c(OC)cc23)cn1 [Compound 108]	< 100
100 to 1000	CCOc1cnn(-c2ccc(C(F)(F)F)cc2C(F)(F)F)c1C(=O)Nc1ccc(Oc2ccnc3cc(OC)c(OC)cc23)cn1 [Compound 110]	< 100
< 100	CCOc1cn(-c2ccc(Cl)cc2CC)nc1C(=O)Nc1ccc(Oc2ccnc3cc(OC)c(OC)cc23)cn1 [Compound 111]	< 100

Kd (TYRO3) [nM]	Structure (SMILES)	IC50 [1] [nM]
< 100	CCOc1cn(-c2ccc(F)cc2CC)nc1C(=O)Nc1ccc(Oc2ccnc3cc(OC)c(OC)cc23)cn1 [Compound 112]	< 100
100 to 1000	CCOc1cn(-c2ccc(OC(F)(F)F)cc2C)nc1C(=O)Nc1ccc(Oc2ccnc3cc(OC)c(OC)cc23)cn1 [Compound 113]	< 100
≥ 1000	CCOc1cn(-c2ccc(C(F)(F)F)cc2F)nc1C(=O)Nc1ccc(Oc2ccnc3cc(OC)c(OC)cc23)cn1 [Compound 114]	< 100
≥ 1000	CCOc1cn(-c2ccc(OC(F)(F)F)cc2Cl)nc1C(=O)Nc1ccc(Oc2ccnc3cc(OC)c(OC)cc23)cn1 [Compound 115]	< 100
≥ 1000	CCOc1cn(-c2ccc(C(C)C)cc2)nc1C(=O)Nc1ccc(Oc2ccnc3cc(OC)c(OC)cc23)cn1 [Compound 116]	< 100
100 to 1000	CCOc1cn(-c2c(C)cc(C)cc2C)nc1C(=O)Nc1ccc(Oc2ccnc3cc(OC)c(OC)cc23)cn1 [Compound 117]	< 100
≥ 1000	CCOc1cn(-c2ccc(OC(F)(F)F)cc2F)nc1C(=O)Nc1ccc(Oc2ccnc3cc(OC)c(OC)cc23)cn1 [Compound 120]	< 100
< 100	CCOc1cn(-c2ccc(F)c(CN(C)C)c2)nc1C(=O)Nc1ccc(Oc2ccnc3cc(OC)c(OC)cc23)cn1 [Compound 124]	< 100
< 100	CCOc1cn(-c2ccc(F)cc2C(C)C)nc1C(=O)Nc1ccc(Oc2ccnc3cc(OC)c(OC)cc23)cn1 [Compound 125]	< 100
≥ 1000	CCOc1cn(-c2ccc(Cl)c(CN(C)C)c2)nc1C(=O)Nc1ccc(Oc2ccnc3cc(OC)c(OC)cc23)cn1 [Compound 126]	< 100
≥ 1000	CCOc1cn(-c2ccc(C(C)C)cc2F)nc1C(=O)Nc1ccc(Oc2ccnc3cc(OC)c(OC)cc23)cn1 [Compound 127]	< 100
< 100	CCOc1cn(-c2ccc(F)c(CO)c2)nc1C(=O)Nc1ccc(Oc2ccnc3cc(OC)c(OC)cc23)cn1 [Compound 128]	< 100
≥ 1000	CCOc1cn(-c2ccc(Cl)c(C(=O)N(C)C)c2)nc1C(=O)Nc1ccc(Oc2ccnc3cc(OC)c(OC)cc23)cn1 [Compound 129]	< 100
100 to 1000	CCOc1cnn(-c2ccc(Cl)c(CN(C)C)c2)c1C(=O)Nc1ccc(Oc2ccnc3cc(OC)c(OC)cc23)cn1 [Compound 130]	< 100
< 100	CCOc1cn(-c2ncc(Cl)cc2C#N)nc1C(=O)Nc1ccc(Oc2ccnc3cc(OC)c(OC)cc23)cn1 [Compound 133]	< 100
< 100	CCOc1cn(-c2cnc(N)nc2)nc1C(=O)Nc1ccc(Oc2ccnc3cc(OC)c(OC)cc23)c(F)c1 [Compound 141]	< 100
≥ 1000	CCOc1cn(-c2cnc(OC)nc2)nc1C(=O)Nc1ccc(Oc2ccnc3cc(OC)c(OC)cc23)cn1 [Compound 148]	< 100
< 100	CCOc1cn(-c2cnccc2C)nc1C(=O)Nc1ccc(Oc2ccnc3cc(OC)c(OC)cc23)cc1F [Compound 151]	< 100
≥ 1000	CCOc1cn(-c2cnc(C)cn2)nc1C(=O)Nc1ccc(Oc2ccnc3cc(OC)c(OC)cc23)cn1 [Compound 160]	< 100
< 100	CCOc1cn(-c2noc(C)n2)nc1C(=O)Nc1ccc(Oc2ccnc3cc(OC)c(OC)cc23)cn1 [Compound 161]	< 100
100 to 1000	CCOc1cn(-c2nccnc2C(F)(F)F)nc1C(=O)Nc1ccc(Oc2ccnc3cc(OC)c(OC)cc23)cn1 [Compound 162]	< 100
100 to 1000	CCOc1cn(-c2ncn(C)n2)nc1C(=O)Nc1ccc(Oc2ccnc3cc(OC)c(OC)cc23)cn1 [Compound 165]	< 100
